Measurements taken from article PMC6691843, “Seeking new approach for therapeutic treatment of cholera disease via inhibition of bacterial carbonic anhydrases: experimental and theoretical studies for sixteen benzenesulfonamide derivatives” (Journal of Enzyme Inhibition and Medicinal Chemistry, 2019).
Read-outs that look alike come from different tables or passages of the source.

Key:
VchCAα = molecular target: T1, VchCAα (Vibrio cholerae serotype O1, UniProt Q9KMP6); assay: stopped flow CO2 hydrase assay, VchCAα; format: biochemical; conditions: for Ki: stopped flow CO2 hydrase assay, mean from three different assays
T1 construct: made in house; host or cells: E. coli BL21 DE3
T1 sequence (Q9KMP6 21-239): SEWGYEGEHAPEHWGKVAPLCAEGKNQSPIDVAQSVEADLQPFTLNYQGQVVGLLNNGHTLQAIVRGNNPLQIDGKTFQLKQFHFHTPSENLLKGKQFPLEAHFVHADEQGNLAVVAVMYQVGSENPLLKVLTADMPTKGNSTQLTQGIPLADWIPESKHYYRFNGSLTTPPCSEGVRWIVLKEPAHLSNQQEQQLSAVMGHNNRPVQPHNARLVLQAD

VchCAβ = VchCAβ (Vibrio cholerae, UniProt A0A086SLX8); assay: stopped flow CO2 hydrase assay, VchCAβ; format: biochemical; conditions: for inhibitory activity toward VchCAβ (in words): qualitative statement
VchCAβ, sequence (A0A086SLX8 entry or part of it): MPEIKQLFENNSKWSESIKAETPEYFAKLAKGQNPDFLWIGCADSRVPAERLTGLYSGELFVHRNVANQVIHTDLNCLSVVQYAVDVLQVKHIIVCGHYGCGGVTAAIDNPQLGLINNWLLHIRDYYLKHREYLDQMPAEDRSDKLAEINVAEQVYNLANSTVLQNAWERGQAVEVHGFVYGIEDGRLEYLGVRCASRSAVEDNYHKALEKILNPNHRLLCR

VchCAγ = VchCAγ (Vibrio cholerae, UniProt Q9KVT1); assay: stopped flow CO2 hydrase assay, VchCAγ; format: biochemical
VchCAγ, sequence (Q9KVT1 entry or part of it): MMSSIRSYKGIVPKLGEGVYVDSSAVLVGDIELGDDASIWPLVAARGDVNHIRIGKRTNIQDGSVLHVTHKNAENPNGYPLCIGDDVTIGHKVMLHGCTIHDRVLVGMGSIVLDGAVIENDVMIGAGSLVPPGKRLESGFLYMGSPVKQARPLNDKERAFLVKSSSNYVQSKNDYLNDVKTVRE

pathogen = test system: pathogen; design: method as in PMID 26010545; conditions: cited from earlier work

Compound: NS(=O)(=O)c1ccc(C(=O)N2CCCCCC2)cc1 [6a, 4-(Azepane-1-carbonyl)benzenesulfonamide]
- Ki (VchCAα; Ki VchCAα): 0.275 µM
- Ki (VchCAβ): > 10 µM
- Ki (VchCAγ): > 10 µM

Compound: NS(=O)(=O)c1ccc(C(=O)N2CCC(c3ccccc3)CC2)cc1 [7a, 4-(4-Phenylpiperidine-1-carbonyl)benzenesulfonamide]
- Ki (VchCAα; Ki VchCAα): 0.0433 µM
- Ki (VchCAβ): 3.31 µM
- Ki (VchCAγ): > 10 µM
- melting point: 222 to 223 °C

Compound: NS(=O)(=O)c1ccc(C(=O)N2CCN(C(c3ccccc3)c3ccccc3)CC2)cc1 [8c, 4-(4-Benzhydrylpiperazine-1-carbonyl)benzenesulfonamide]
- Ki (VchCAα; Ki VchCAα): 0.275 µM
- Ki (VchCAβ): 4.82 µM
- inhibitory activity toward VchCAβ (in words) (VchCAβ): moderate inhibitors
- Ki (VchCAγ): > 10 µM

Compound: N#CC1(c2ccccc2)CCN(C(=O)c2ccc(S(N)(=O)=O)cc2)CC1 [7e, 4-(4-Cyano-4-phenylpiperidine-1-carbonyl)benzenesulfonamide]
- Ki (VchCAα; Ki VchCAα): 0.0899 µM
- Ki (VchCAβ): 0.806 µM
- Ki (VchCAγ): > 10 µM
- melting point: 285 to 286 °C

Compound: NS(=O)(=O)c1ccc(C(=O)N2CCC(O)(c3ccc(Br)cc3)CC2)cc1 [7d, 4-[4-(4-Bromophenyl)-4-hydroxy-piperidine-1-carbonyl]benzenesulfonamide]
- Ki (VchCAα; Ki VchCAα): 0.0588 µM
- Ki (VchCAβ): 2.78 µM
- Ki (VchCAγ): > 10 µM
- melting point: 219 to 220 °C

Compound: CCOc1ccc2nc(S(N)(=O)=O)sc2c1 [EZA, ethoxzolamide]
- growth of pathogen (pathogen): reduce the growth of pathogen
- virulence gene expression (pathogen): decrease the virulence gene expression

Compound: CC(=O)C1(c2ccccc2)CCN(C(=O)c2ccc(S(N)(=O)=O)cc2)CC1 [7f, 4-(4-Acetyl-4-phenyl-piperidine-1-carbonyl)benzenesulfonamide]
- Ki (VchCAα; read-out: Ki VchCAα): 0.0721 µM
- Ki (VchCAβ): 6.61 µM
- Ki (VchCAγ): > 10 µM

Compound: NS(=O)(=O)c1ccc(C(=O)N2CCN(Cc3ccccc3)CC2)cc1 [8a, 4-(4-Benzylpiperazine-1-carbonyl)benzenesulfonamide]
- reduction of activity on VchCAα compared to parent compound 8d (VchCAα; 8a versus 8d): ten-fold reduction of activity
- Ki (VchCAα; Ki VchCAα): 0.47 µM
- Ki (VchCAβ): > 10 µM
- inhibitory activity toward VchCAβ (in words) (VchCAβ): completely loss of inhibitory activity
- Ki (VchCAγ): > 10 µM
- melting point: 204 to 205 °C

Compound: NS(=O)(=O)c1ccc(C(=O)N2CCN(c3ccccc3)CC2)cc1 [8d, 4-(4-Phenylpiperazine-1-carbonyl)benzenesulfonamide]
- Ki (VchCAα; Ki VchCAα): 0.047 µM
- Ki (VchCAβ): 4.16 µM
- inhibitory activity toward VchCAβ (in words) (VchCAβ): moderate inhibitors
- Ki (VchCAγ): > 10 µM

Compound: NS(=O)(=O)c1ccc(C(=O)N2CCCCC2)cc1 [5a, 4-(Piperidine-1-carbonyl)benzenesulfonamide]
- Ki (VchCAα; Ki VchCAα): 0.843 µM
- Ki (VchCAβ): > 10 µM
- Ki (VchCAγ): > 10 µM

Compound: NS(=O)(=O)c1ccc(C(=O)N2CCC(O)(c3ccccc3)CC2)cc1 [7b, 4-(4-Hydroxy-4-phenylpiperidine-1-carbonyl)benzenesulfonamide]
- Ki (VchCAα; Ki VchCAα): 0.194 µM
- Ki (VchCAβ): 3.71 µM
- Ki (VchCAγ): > 10 µM
- melting point: 135 to 137 °C

Compound: NS(=O)(=O)c1ccc(C(=O)N2CCC(Cc3ccccc3)CC2)cc1 [5e, 4-(4-Benzylpiperidine-1-carbonyl)benzenesulfonamide]
- Ki (VchCAα; Ki VchCAα): 0.242 µM
- Ki (VchCAβ): 3.75 µM
- Ki (VchCAγ): > 10 µM
- melting point: 156 to 157 °C

Compound: CC1CCN(C(=O)c2ccc(S(N)(=O)=O)cc2)CC1 [5d, 4-(4-Methylpiperidine-1-carbonyl)benzenesulfonamide]
- Ki (VchCAα; Ki VchCAα): 0.589 µM
- Ki (VchCAβ): > 10 µM
- Ki (VchCAγ): > 10 µM
- melting point: 212 to 213 °C

Compound: NS(=O)(=O)c1ccc(C(=O)N2CCN(Cc3ccc(F)cc3)CC2)cc1 [8b, 4-[4-[(4-Fluorophenyl)methyl]piperazine-1-carbonyl]benzenesulfonamide]
- Ki (VchCAα; Ki VchCAα): 0.0957 µM
- Ki (VchCAβ): 5.01 µM
- inhibitory activity toward VchCAβ (in words) (VchCAβ): moderate inhibitors
- Ki (VchCAγ): > 10 µM
- melting point: 206 to 207 °C

Compound: CC1CCCN(C(=O)c2ccc(S(N)(=O)=O)cc2)C1 (stereo not shown) [5c, 4-(3-Methylpiperidine-1-carbonyl)benzenesulfonamide]
- Ki (VchCAα; Ki VchCAα): 0.529 µM
- Ki (VchCAβ): > 10 µM
- Ki (VchCAγ): > 10 µM

Compound: NS(=O)(=O)c1ccc(C(=O)N2CCC(O)(c3ccc(Cl)cc3)CC2)cc1 [7c, 4-[4-(4-Chlorophenyl)-4-hydroxypiperidine-1-carbonyl]benzenesulfonamide]
- Ki (VchCAα; Ki VchCAα): 0.0451 µM
- Ki (VchCAβ): 3.94 µM
- Ki (VchCAγ): > 10 µM
- melting point: 215 to 217 °C

Compound: CC1CCCCN1C(=O)c1ccc(S(N)(=O)=O)cc1 (stereo not shown) [5b, 4-(2-Methylpiperidine-1-carbonyl)benzenesulfonamide]
- Ki (VchCAα; Ki VchCAα): 0.296 µM
- Ki (VchCAβ): > 10 µM
- Ki (VchCAγ): > 10 µM
